30 compounds from patent publication US20050065099A1, “Treatment of mitochondrial diseases” (priority 2003, published 2005) can be followed below.

Where only a bound is given, the exact number is not on record here.

The first experiment deals with FRDA fibroblasts. Put plainly: FRDA fibroblast assay for protection from oxidative stress. Type of experiment: cell-based. To be noted: Homo sapiens, 24 h preincubation, 1 mM BSO, compared to untreated FRDA fibroblasts, read-out: EC50 for reduction of cell death in FRDA fibroblasts. An excerpt:
A cellular assay using FRDA-patient derived fibroblasts (as described by Jauslin, M L et al, Human Molecular Genetics 11; 3055-3063 (2002)); is used to determine the cell protecting effect of the test compounds by analyzing survival of dermal fibroblasts taken from FRDA patients and unaffected normal donors under conditions of partial GSH depletion. Exposure of FRDA fibroblasts to BSO (L-buthionine (S,R)-sulfoximine) under conditions of restricted selenium causes depletion of cellular glutathione (GSH) and severe plasma membrane damage leading to cell death. Preincubation with the test compounds before the addition of BSO is used to determine if they can protect FRDA cells from BSO-mediated cell death.
Primary fibroblasts were derived from donors with a molecular diagnosis of FRDA and control donors with no mitochondrial disease. Lines F2, C2 and C3 were obtained from Coriell Cell Repositories (Camden, N.J., USA; catalog #'s GM04078, GM 08402 and GM08399, respectively). All cell types were diagnosed at the molecular level for intronic GAA triplet repeat length in the trataxin gene using a PCR-based method, according to methods known in the art. […] The cells were seeded in microtiter plates at a density of 4000 cells per 100 μl in growth medium consisting of 25% (v/v) M199 EBS and 64% (v/v) MEM EBS without phenol red (Bioconcept, Allschwil, Switzerland) supplemented with 10% (v/v) fetal calf serum (PAA Laboratories, Linz, Austria), 100 U/ml penicillin, 100 μg/ml streptomycin (PAA Laboratories, Linz, Austria), 10 μg/ml insulin (Sigma, Buchs, Switzerland), 10 μg/ml EGF (Sigma, Buchs, Switzerland), 10 μg/ml bFGF (PreproTech, Rocky Hill, N.J., USA) and 2 mM glutamine (Sigma, Buchs, Switzerland). The cells were incubated in the presence of the various test compounds for 24 h before addition of 1 mM BSO (L-buthionine (S,R)-sulfoximine).
Cell viability was measured after the first signs of toxicity appeared in the BSO-treated controls (typically after 16-48 h). The cells were stained for 60 min at room temperature in PBS with 1.2 μm calceinAM and 4 μm ethidium homodimer (Live/Dead assay, Molecular Probes, Eugene, Oreg., USA). Fluorescence intensity was measured with a Gemini Spectramax XS spectrofluorimeter (Molecular Devices, Sunnyvale, Calif., USA) using excitation and emission wavelengths of 485 and 525 nm, respectively.
One may read the EC50 as the midpoint of the concentration-response curve. Consider `Cc1c(O)cc2c(c1C)OC(C)(CCCC1SC(=O)NC1=O)CC2` (stereo not shown) [5-[3-(6-Hydroxy-2,7,8-trimethyl-chroman-2-yl)-propyl]-thiazolidine-2,4-dione], for which the EC50 was in the range of 0.01 to 6 µM. `CC(C)=CCc1c(O)c(C)c(C)c2c1CCC(C)(CCCl)O2` (stereo not shown) [2-(2-Chloro-ethyl)-2,7,8-trimethyl-5-(3-methyl-but-2-enyl)-chroman-6-ol]: the EC50 fell in the range of 0.01 to 6 µM. The same measure, in the same setting: with `CC(C)=CCCC(C)=CCCC(C)=CCCC1(C)CCc2cc(O)c(C)c(C)c2O1` (stereo not shown) [Gamma-tocotrienol, 2,7,8-trimethyl-2-(4,8,12-trimethyl-trideca-3,7,11-trienyl)-chroman-6-ol] the figure was 0.01 to 6 µM. The same measure, in the same setting: the value for `Cc1c(O)cc2c(c1C)OC(C)(CCCC(C)CCCC(C)CCCC(C)C)CC2` (stereo not shown) [Gamma-tocopherol, 2,7,8-trimethyl-2-(4,8,12-trimethyltridecyl)-6-chromanol] was 0.01 to 6 µM; that for `Cc1c(O)cc2c(c1C)OC(C)(CCCl)CC2` (stereo not shown) [2-(2-chloro-ethyl)-2,7,8-trimethyl-chroman-6-ol] was 0.01 to 6 µM. On the same count and under the same terms, with `Cc1cc(O)cc2c1OC(C)(CCCC(C)CCCC(C)CCCC(C)C)CC2` (stereo not shown) [Delta tocopherol, 2,8-dimethyl-2-(4,8,12-trimethyl-tridecyl)-chroman-6-ol] the figure was 0.01 to 6 µM; with `Cc1c(O)cc2c(c1C)OC(C)(CCC(=O)NC(CCC(=O)NC(CS)C(=O)NCC(=O)O)C(=O)O)CC2` (stereo not shown) [4-[1-(Carboxymethyl-carbamoyl)-2-mercapto-ethylcarbamoyl]-2-[3-(6-hydroxy-2,7,8-trimethyl-chroman-2-yl)-propionylamino]-butyric acid], 0.01 to 6 µM. `Cc1c(C)c2c(c(CSCC(NC(=O)CCC(N)C(=O)O)C(=O)NCC(=O)O)c1O)CCC(C)(CCCC(C)CCCC(C)CCCC(C)C)O2` (stereo not shown) [2-Amino-4-{1-(carboxymethyl-carbamoyl)-2-[6-hydroxy-2,7,8-trimethyl-2-(4,8,12-trimethyl-tridecyl)-chroman-5-ylmethylsulfanyl]-ethylcarbamoyl}-butyric acid]: the EC50 is 0.01 to 6 µM. For the compound `Cc1c(C)c2c(c(CCC(C)C)c1O)CCC(C)(C)O2` [2,2,7,8-Tetramethyl-5-(3-methyl-butyl)-chroman-6-ol], the EC50 fell in the range of 0.01 to 6 µM.

`CC(C)=CCCC(C)=CCCC(C)=CCCC1(C)CCc2cc(O)cc(C)c2O1` (stereo not shown) [Delta tocotrienol, 2,8-dimethyl-2-(4,8,12-trimethyl-trideca-3,7,11-trienyl)-chroman-6-ol]: the 50% effective concentration (EC50) is 0.01 to 6 µM.

For a further experiment, the system named is dopaminergic neuronal cell line. Put plainly: High glutamate-induced oxidative stress assay (HGOS). Type of experiment: cell-based. Conditions: Mus musculus; 30 mM glutamate, 16 hrs, Cell Tracker Green; read-out: EC50 for protection against HGOS cell injury and cell death. An excerpt: Protection against redox stress can be further evaluated in cell culture using high glutamate induced oxidative stress (HGOS) in mouse dopaminergic cell lines. The cytotoxic effect of glutamate is not due to excitotoxicity, as this cell line is devoid of inotropic glutamate receptors. Rather, the glutamate-induced toxicity of dopaminergic cells is associated with an inhibition of cystine transport which subsequently leads to depletion of intracellular glutathione (GSH) levels (Murphy T. H., et al. Neuron 2, 1547-1558, 1989), activation of neuronal 12-lipoxygenase (Li, Y. et al., Neuron 19,453-463, 1997), increased ROS production (Tan S. et al., J. Cell Biol. 141, 1423-1432, 1998) and elevated intracellular Ca^2+ (Li, Y. et al., see supra). Some molecules were measured for their ability to protect such cells against glutamate-induced stress and the assay is detailed in Examples.
This procedure was used to induce high glutamate-induced oxidative stress (HGOS) in a dopaminergic neuronal cell line. Using this assay the potency and efficacy of test articles against HGOS neuronal cell injury and cell death was established in a high throughput manner.
The cells were seeded into 96-well plates at a density of 2000 per well and left to grow for 72 hours in a 33° C. incubator with 5% CO2 in air atmosphere. The passage number of the cells for each assay experiment were no later than p11 in order to minimize experimental variation.
All compounds were dissolved in DMEM-No Glu containing 1 mM glucose, 30 mM glutamate and 1× Pen/Strep. DMEM-No Glu with 1 mM glucose and 1×P/S was used as the negative control, DMEM-No Glucose with 1 mM glucose, […] was used as a positive control and 100 μM Glutathione was added to the positive control as a standard. All of the procedures for this involving the making and dilution of compounds were performed using aseptic conditions and with minimal light.
The plates were removed from the incubator and examined under the microscope for morphological appearance and density. Using an aseptic technique and an 8-channel aspirator the media was carefully removed from the cells and replaced with 200 μl of 1×HBSS. This was done as quickly as possible to prevent the cells drying out. The plates were then placed in the humidified 37° C. incubators of the Biomek 2000 Side Loader. Four plates were washed at a time so as to minimize the time that the cells were sitting in 1×HBSS prior to addition of the compound test solution.
The Beckman Biomek workstations were used to load the compounds and controls from the mother plates onto the cell plates that were prewashed with HBSS under sterile conditions. The plates were incubated in the upper HTS incubator at 37° C. in 5% CO2 for exactly 16 hrs. The following day, using the Beckman Biomek workstations, the plates were removed from the incubator. Using Cell Tracker Addition, the compounds were removed from the plates, washed once with […] of pre-warmed 1×HBSS and then 100 μL of 5 μM Cell Tracker Green was added to each well. The plates were incubated at 37° C. for 30 min to allow the dye to enter the cell and be cleaved by the esterases. After washing the cells twice with prewarmed 1×HBSS, the plates were read with the 485 excitation; 538 emission filter pair on a Fluoroskan.
With `Cc1c(C)c2c(c(C)c1O)CCC(C)(C(=O)N1CCNCC1)O2` (stereo not shown) [(6-Hydroxy-2,5,7,8-tetramethyl-chroman-2-yl)-piperazin-1-yl-methanone], the EC50 is no more than 5 µM. The same measure, in the same setting: with `C#CC1(C)CCc2c(C)c(O)c(C)c(C)c2O1` (stereo not shown) [2-Ethynyl-2,5,7,8-tetramethyl-chroman-6-ol] the figure was no more than 5 µM. `Cc1c(C)c2c(c(C(C)O)c1O)CCC(C)(C)O2` (stereo not shown) [5-(1-Hydroxy-ethyl)-2,2,7,8-tetramethyl-chroman-6-ol]: the EC50 is no more than 5 µM. For the compound `Cc1c(C)c2c(c(CO)c1O)CCC(C)(C)O2` [5-Hydroxymethyl-2,2,7,8-tetramethyl-chroman-6-ol], the EC50 is no more than 5 µM. Same read-out and setting: the value for `Cc1c(C)c2c(c(C)c1O)CCC(C)(C(=N)N)O2` (stereo not shown) [6-Hydroxy-2,5,7,8-tetramethyl-chroman-2-carboxamidine] was no more than 5 µM; that for `Cc1c(O)cc2c(c1C)OC(C)(CCCC1SC(=O)NC1=O)CC2` (stereo not shown) [5-[3-(6-Hydroxy-2,7,8-trimethyl-chroman-2-yl)-propyl]-thiazolidine-2,4-dione] was no more than 5 µM. Same read-out and setting: the value for `CC(C)=CCc1c(O)c(C)c(C)c2c1CCC(C)(CCCl)O2` (stereo not shown) [2-(2-Chloro-ethyl)-2,7,8-trimethyl-5-(3-methyl-but-2-enyl)-chroman-6-ol] was no more than 5 µM. The same measure, in the same setting: with `Cc1cc(O)c(C)c2c1OC(C)(C)CC2` [2,2,5,8-Tetramethyl-chroman-6-ol] the figure was no more than 5 µM. On to `Cc1c(O)cc2c(c1C)OC1(C)CCCC2C1` (stereo not shown) [5,6,9-Trimethyl-8-oxa-tricyclo[7.3.1.0^2,7]trideca-2,4,6-trien-4-ol], for which the EC50 was no more than 5 µM.

`Cc1c(C)c2c(c(CCO)c1O)CCC(C)(C)O2` [5-(2-Hydroxy-ethyl)-2,2,7,8-tetramethyl-chroman-6-ol]: the EC50 is no more than 5 µM. Regarding `Cc1c(C)c2c(c(CN3CCN(Cc4ccccc4)CC3)c1O)CCC(C)(CCCC(C)CCCC(C)CCCC(C)C)O2` (stereo not shown) [5-(4-Benzyl-piperazin-1-ylmethyl)-2,7,8-trimethyl-2-(4,8,12-trimethyl-tridecyl)-chroman-6-ol], the EC50 is no more than 5 µM. On to `Cc1c(C)c2c(c(C)c1O)C=CC(C)(C)O2` [2,2,5,7,8-Pentamethyl-2H-chromen-6-ol], for which the EC50 was no more than 5 µM. Same read-out and setting: the value for `Cc1c(C)c2c(c(C)c1O)CCC(C)(COCC(=O)Nc1cccc(C(F)(F)F)c1)O2` (stereo not shown) [2-(6-Hydroxy-2,5,7,8-tetramethyl-chroman-2-ylmethoxy)-N-(3-trifluoromethyl-phenyl)-acetamide] was no more than 5 µM; that for `Cc1c(C)c2c(c(C)c1O)CCC(C)(CO)O2` (stereo not shown) [2-Hydroxymethyl-2,5,7,8-tetramethyl-chroman-6-ol] was no more than 5 µM; that for `Cc1c(C)c2c(c(Br)c1O)CCC(C)(CCC(=O)O)O2` (stereo not shown) [3-(5-Bromo-6-hydroxy-2,7,8-trimethyl-chroman-2-yl)-propionic acid] was no more than 5 µM.

`Cc1c(O)cc2c(c1C)OC(C)(CCCl)CC2` (stereo not shown) [2-(2-chloro-ethyl)-2,7,8-trimethyl-chroman-6-ol]: the EC50 was no more than 5 µM. The same measure, in the same setting: with `Cc1c(O)c(C)c([N+](=O)[O-])c2c1CCC(C)(C)O2` [2,2,5,7-Tetramethyl-8-nitro-chroman-6-ol] the figure was no more than 5 µM; with `COc1cccc2c(O)cc3c(c12)OC(C)(C)CC3` [10-Methoxy-2,2-dimethyl-3,4-dihydro-2H-benzo[h]chromen-6-ol], no more than 5 µM; with `Cc1c(O)cc2c(c1C)OC(C)(C)CC2` [2,2,7,8-Tetramethyl-chroman-6-ol], no more than 5 µM.

As to `Cc1c(C)c2c(c(CC(CO)CO)c1O)CCC(C)(C)O2` [2-(6-Hydroxy-2,2,7,8-tetramethyl-chroman-5-ylmethyl)-propane-1,3-diol], the EC50 was no more than 5 µM. Same read-out and setting: with `Cc1c(O)cc2c(c1C)OC(C)(CCCCl)CC2` (stereo not shown) [2-(3-Chloro-propyl)-2,7,8-trimethyl-chroman-6-ol] the figure was no more than 5 µM; with `CC(=O)N(C)CC1(C)CCc2c(C)c(O)c(C)c(C)c2O1` (stereo not shown) [N-(6-Hydroxy-2,5,7,8-tetramethyl-chroman-2-ylmethyl)-N-methyl-acetamide], no more than 5 µM; with `Cc1c(C)c2c(c(CCC(C)C)c1O)CCC(C)(C)O2` [2,2,7,8-Tetramethyl-5-(3-methyl-butyl)-chroman-6-ol], no more than 5 µM. The same measure, in the same setting: with `Cc1c(O)c(C)c2c(c1C=O)OC(C)(C)CC2` [6-Hydroxy-2,2,5,7-tetramethyl-chroman-8-carbaldehyde] the figure was no more than 5 µM.
